In general, solubility refers to the dissolved amount per volume that the medium holds. A high value points to much dissolved substance.

Structures are written as SMILES. In brackets after ≈: the same amount, converted by molar mass.

The conditions of series [1]: murine plasma; cited from earlier work.
The conditions of series [2]: human plasma; cited from earlier work.
Series [3] can be described thus: Solubility of docetaxel in trehalose or water. It is filed as physicochemical.

For the compound `C/C1=C/C[C@@H](/C(C)=C/c2csc(C)n2)OC(=O)C[C@H](O)C(C)(C)C(=O)[C@H](C)[C@@H](O)[C@@H](C)CCC1` [desoxy-epothilone B], the “in vitro half life” value in series [1] was roughly 20 min. Also, the half life result in series [2] is listed as “around 3 h”.
For `CC(=O)O[C@@]12CO[C@@H]1C[C@H](O)[C@@]1(C)C(=O)[C@H](O)C3=C(C)[C@@H](OC(=O)[C@H](O)[C@@H](NC(=O)OC(C)(C)C)c4ccccc4)C[C@@](O)([C@@H](OC(=O)c4ccccc4)[C@H]21)C3(C)C` [docetaxel], the solubility in series [3] was roughly 20 µM (≈ 16.2 µg/mL).

The values above are taken from patent US9238021B2, “Method of producing a cationic liposomal preparation comprising a lipophilic compound” (MEDIGENE AG, priority 2002, dated 2016).
